# Data from publication PMC6151550, “Inhibitory Effect of Selaginellins from Selaginella tamariscina (Beauv.) Spring against Cytochrome P450 and Uridine 5′-Diphosphoglucuronosyltransferase Isoforms on Human Liver Microsomes” (Molecules : A Journal of Synthetic Chemistry and Natural …, 2017).
# Read-outs that look alike come from different tables or passages of the source.
# Key:
# Format in all cases: in vitro ADME
# [1] = biological target: T1, UGT1A3 (Homo sapiens, UniProt P35503); assay: UGT1A3 inhibition (chenodeoxycholic acid glucuronidation) in human liver microsomes, cocktail LC-MS/MS; conditions: IC50 UGT isoform 1A3, HLMs 0.25 mg/mL with alamethicin, chenodeoxycholic acid 2.0 μM
# T1 construct: from tissue; host or cells: human liver microsomes
# T1 sequence (P35503 29-534): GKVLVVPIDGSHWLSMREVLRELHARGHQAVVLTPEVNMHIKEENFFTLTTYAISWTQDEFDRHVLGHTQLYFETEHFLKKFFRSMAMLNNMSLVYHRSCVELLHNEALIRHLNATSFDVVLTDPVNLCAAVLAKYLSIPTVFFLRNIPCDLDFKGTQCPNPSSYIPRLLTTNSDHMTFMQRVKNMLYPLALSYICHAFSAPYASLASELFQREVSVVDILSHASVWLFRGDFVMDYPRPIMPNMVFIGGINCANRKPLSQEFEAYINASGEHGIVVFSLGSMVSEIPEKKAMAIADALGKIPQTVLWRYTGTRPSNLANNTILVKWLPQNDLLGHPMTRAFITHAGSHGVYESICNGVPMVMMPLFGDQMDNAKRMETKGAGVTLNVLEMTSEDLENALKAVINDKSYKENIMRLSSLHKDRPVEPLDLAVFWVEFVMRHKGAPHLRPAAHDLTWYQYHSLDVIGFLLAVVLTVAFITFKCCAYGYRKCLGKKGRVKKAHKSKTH
# Method: The inhibitory effects of two selaginellins on the metabolism of six UGT probe substrates were evaluated using previously reported method with minor modification. In brief, HLMs (0.25 mg/mL) were activated by incubation in the presence of alamethicin (25 μg/mL) for 15 min on ice. After the addition of UGT isoform-selective substrates and selaginellins (0, 0.5, 2, 5, 20 and 50 μM) the final concentrations of organic solvent (methanol) for the cocktail incubation conditions were 1.0% (v/v). The incubation reaction mixtures were pre-incubated for 5 min. The reaction was initiated by the addition of 5 mM UDPGA and further incubated for 60 min. All reactions were terminated by adding ice-cold acetonitrile containing estrone glucuronide (IS). After mixing and centrifugation, aliquots were injected into a LC-MS/MS as described previously (Table 2). All microsomal incubations were performed in triplicate.
# The IC50 values (concentration of the inhibitor causing 50% inhibition of the original enzyme activity) were calculated using WinNonlin software (Pharsight, Mountain View, CA, USA): percentage of control activity = 100 × [1 − (I/(I + IC50))], where I is the inhibitor concentration, and IC50 is the inflection point on the curve.
# [2] = system: CYP3A; assay: CYP3A inhibition (midazolam 1'-hydroxylase) in human liver microsomes, substrate cocktail LC-MS/MS
# Method: (§1) The inhibitory effects of two selaginellins on the metabolism of ten P450 probe substrates were evaluated using previously reported method with minor modification. Phenacetin O-deethylase, coumarin 7-hydroxylase, bupropion 4-hydroxylase, amodiaquine N-deethylase, tolbutamide 4-hydroxylase, omeprazole 5-hydroxylase, dextromethorphan O-demethylase, chlorzoxazone 6-hydroxylase and midazolam 1′-hydroxylase activities were determined as probe activities for CYP1A2, CYP2A6, CYP2B6, CYP2C8, CYP2C9, CYP2C19, CYP2D6, CYP2E1 and […], respectively, using substrate cocktail incubation and tandem mass spectrometry (Table 2). Selaginellins were dissolved in methanol. The final concentrations of organic solvent (methanol) for the cocktail incubation conditions in all experiments were 1.0% (v/v). In brief, the incubation mixtures containing pooled HLMs (0.25 mg/mL, H2630, Xenotech), P450 probe substrate cocktail, and inhibitor (0, 0.5, 2, 5, 20 and 50 μM) were preincubated at 37 °C for 5 min. […] After mixing and centrifugation, aliquots were analyzed by liquid chromatography-tandem mass spectrometry (LC-MS/MS) as previous described. The CYP2J2 inhibitory effects of two selaginellins were also evaluated in pooled HLMs using previously reported method. […]
# [3] = biological target: T2, CYP1A2 (Homo sapiens, UniProt P05177); assay: CYP1A2 inhibition (phenacetin O-deethylase) in human liver microsomes, substrate cocktail LC-MS/MS
# T2 construct: the incubation mixtures containing pooled HLMs (0.25 mg/mL, H2630, Xenotech); tissue Xenotech H2630; host or cells: pooled human liver microsomes
# T2 sequence (P05177 1-516): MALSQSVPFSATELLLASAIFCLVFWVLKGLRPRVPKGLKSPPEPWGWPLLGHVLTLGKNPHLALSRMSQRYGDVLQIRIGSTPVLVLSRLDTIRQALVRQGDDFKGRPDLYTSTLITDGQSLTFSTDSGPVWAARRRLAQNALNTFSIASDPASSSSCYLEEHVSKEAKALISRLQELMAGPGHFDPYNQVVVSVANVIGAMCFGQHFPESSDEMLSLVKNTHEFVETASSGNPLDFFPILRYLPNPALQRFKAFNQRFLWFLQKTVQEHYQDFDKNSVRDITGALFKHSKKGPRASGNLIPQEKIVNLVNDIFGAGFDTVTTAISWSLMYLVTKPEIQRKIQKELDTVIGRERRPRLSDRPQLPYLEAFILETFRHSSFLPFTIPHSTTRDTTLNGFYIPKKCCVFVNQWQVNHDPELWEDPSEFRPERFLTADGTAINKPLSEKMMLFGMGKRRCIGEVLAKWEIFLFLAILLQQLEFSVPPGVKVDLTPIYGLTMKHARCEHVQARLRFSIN
# Method: as §1
Structure (SMILES),IC50 [1] [µM],IC50 at 15 min [2] [µM],"IC50 ([3]; pooled HLMs 0.25 mg/mL, phenacetin 100 μM, read-out: IC50 P450 isoform 1A2) [µM]","IC50 at 15 min ([2]; pooled HLMs 0.25 mg/mL, midazolam 5.0 μM, read-out: IC50 P450 isoform 3A) [µM]",IC50 [3] [µM]
COc1ccc(C(=C2C=CC(=O)C=C2)c2c(-c3ccc(O)cc3)ccc(CO)c2C#Cc2ccc(O)cc2)cc1 [Selaginellin M],3.5,> 50,> 50,–,–
O=C1C=CC(=C(c2ccc(O)cc2)c2c(-c3ccc(O)cc3)ccc(CO)c2C#Cc2ccc(O)cc2)C=C1 [Selaginellin],4.7,–,–,11.7,36.4
